Consider ten molecules from ChEMBL document CHEMBL1123893, “Synthesis and physicochemical properties of thiadiazolo[3,2-a]pyrimidinesulfonamides and thiadiazolo[3,2-a]triazinesulfonamides as candidates for topically effective carbonic anhydrase inhibitors” (J Med Chem, 1987).

Series [1] is described as follows: physchem. Conditions: buffer.
Description: Evaluated for sulfonamide pKa, free acid water solubility
Series [2] is filed under the species Oryctolagus cuniculus. The following applies: rabbit, in vivo.
Description: Evaluated for first order rate constant (Kin) for transcorneal penetration in anesthetized rabbits
The species named for series [3] is Oryctolagus cuniculus. Nature of the series: Evaluated for effect on intraocular pressure(IOP) in rabbit after 1 hour. Format: functional, Eye.
A short description of series [4]: physchem.
Description: Compound was evaluated for its solubility in water
The species named for series [5] is Oryctolagus cuniculus.
The conditions of series [6]: octanol/water, pH 7.4.
Description: Evaluated for lipid solubility measured as partition coefficient at a pH 7.4 (CHCl3/buffer)

In brackets after ≈: the same amount, converted by molar mass.

Description for Carbonic anhydrase: Evaluated for its activity against carbonic anhydrase (CA) in anesthetized rabbits

For orientation: pKa means the pH at which an ionisable group is half protonated. A low value points to a group that gives up its proton readily. For orientation: solubility means the concentration that dissolves in the medium under given conditions. Low readings indicate a poorly soluble substance, high ones a readily soluble substance. In the series “physchem [1]”, `Cn1nc(S(N)(=O)=O)s/c1=N\C(=O)C(F)(F)F` yielded a pKa of 6.6. In the series filed under Oryctolagus cuniculus [2], the Kin was 0.014 h⁻¹. The molecule also showed an Effect in the series filed under Oryctolagus cuniculus [3] of -3.1 mmHg. Moreover, in “physchem [4]” (water), the solubility was 8 mM (≈ 2320 µg/mL).
Consider `CCn1c(=O)nc2sc(S(N)(=O)=O)nn2c1=O`, for which the I50 at Carbonic anhydrase was determined as 20 nM. In addition, in the series filed under Oryctolagus cuniculus [5], the Effect came to 0 mmHg.
The molecule `NS(=O)(=O)c1nn2c(O)cc(=O)nc2s1` yielded an I50 on Carbonic anhydrase of 37 nM.
With `NS(=O)(=O)c1nn2c(=O)n(CCCl)c(=O)nc2s1`, the I50 at Carbonic anhydrase is 18 nM. The Effect in the series listed under Oryctolagus cuniculus [5] was 0 mmHg.
Turning to `COc1cc(=O)nc2sc(S(N)(=O)=O)nn12`, at Carbonic anhydrase, the I50 was 50 nM. The molecule further displayed an Effect in the series filed under Oryctolagus cuniculus [5] of 0 mmHg.
Take `NS(=O)(=O)C1=NN2C(=NC(=O)NS2(=O)=O)S1`: the I50 at Carbonic anhydrase stood at 50 nM. For the same molecule, the Effect in the series listed under Oryctolagus cuniculus [5] worked out at 0 mmHg.
Regarding `NS(=O)(=O)c1nn2c(=O)[nH]c(=O)nc2s1`, the I50 at Carbonic anhydrase came out at 20 nM. In the series listed under Oryctolagus cuniculus [5], this molecule returned an Effect of 0 mmHg. In addition, the pKa in the series “physchem [1]” was 8.3. The same molecule gave a solubility in “physchem [4]” (water) of 4 mM (≈ 997 µg/mL).
`NS(=O)(=O)C1=NN2CCS(=O)(=O)N=C2S1` displayed an I50 at Carbonic anhydrase of 14 nM. The molecule further displayed an Effect in the series filed under Oryctolagus cuniculus [5] of 0 mmHg.
The corresponding values for `Cn1c(=O)nc2sc(S(N)(=O)=O)nn2c1=O` are 20 nM and -1 mmHg.
One may read the log D as the decadic logarithm of the distribution of all forms, ionised or not, between an organic phase and buffer at a given pH. Take `CC(=O)/N=c1/sc(S(N)(=O)=O)nn1C` [METHAZOLAMIDE]: in series [6], the “log D” value is listed as 0.06. The molecule also returned an Effect in the series filed under Oryctolagus cuniculus [5] of -0.6 mmHg. In addition, the Kin in the series filed under Oryctolagus cuniculus [2] worked out at 0.006 h⁻¹. In the series “physchem [4]” (buffer), this molecule registered a solubility of 5 mM (≈ 1180 µg/mL).
